From BindingDB's records for doi:10.1124/mol.58.6.1310 (Pfizer, 2000) come the findings set out here.

The target in the experiment is Glutamate receptor 3 (Rattus norvegicus, UniProt P19492).
Sequence of Glutamate receptor 3 (P19492 whole entry): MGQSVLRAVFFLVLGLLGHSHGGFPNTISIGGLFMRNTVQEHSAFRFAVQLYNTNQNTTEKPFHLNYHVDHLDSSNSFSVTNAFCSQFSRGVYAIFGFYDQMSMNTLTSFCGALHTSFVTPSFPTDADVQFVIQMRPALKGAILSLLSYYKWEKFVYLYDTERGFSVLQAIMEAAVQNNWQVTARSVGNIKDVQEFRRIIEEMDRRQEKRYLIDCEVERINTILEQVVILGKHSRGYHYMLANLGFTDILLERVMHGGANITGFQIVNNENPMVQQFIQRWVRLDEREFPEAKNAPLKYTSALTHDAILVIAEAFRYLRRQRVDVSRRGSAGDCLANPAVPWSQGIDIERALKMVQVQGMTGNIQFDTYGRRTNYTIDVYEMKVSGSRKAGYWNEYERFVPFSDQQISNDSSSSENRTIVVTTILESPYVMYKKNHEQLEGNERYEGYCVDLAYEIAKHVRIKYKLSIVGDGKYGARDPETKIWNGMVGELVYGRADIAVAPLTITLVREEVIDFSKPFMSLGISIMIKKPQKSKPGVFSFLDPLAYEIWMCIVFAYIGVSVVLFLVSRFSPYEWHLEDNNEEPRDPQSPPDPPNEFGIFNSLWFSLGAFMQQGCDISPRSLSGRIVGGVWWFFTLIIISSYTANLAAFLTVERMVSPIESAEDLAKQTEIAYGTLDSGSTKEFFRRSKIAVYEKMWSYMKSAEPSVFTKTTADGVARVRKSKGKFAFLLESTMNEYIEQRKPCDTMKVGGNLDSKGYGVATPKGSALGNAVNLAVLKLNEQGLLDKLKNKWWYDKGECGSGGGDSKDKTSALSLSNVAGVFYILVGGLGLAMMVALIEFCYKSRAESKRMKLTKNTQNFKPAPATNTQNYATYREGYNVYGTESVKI
On to `N#Cc1cccc(/C=C/c2nc3ccc(F)cc3c(=O)n2-c2ccccc2Cl)n1`, for which the Ki (as a rule, the equilibrium dissociation constant of an inhibitor or competing ligand from its target) turned out to be 3 nM.

`Cc1ncccc1-n1c(/C=C/C2CSC(C)N2)nc2ccccc2c1=O` (stereo not given) [CP-471236] had a Ki of 57 nM. This Ki is about 19-fold higher than that of the compound before. In the case of `CC1=NN=C(c2ccc(N)cc2)c2cc3c(cc2C1)OCO3` [GYKI-52466] it was above 10000 nM.

For `Cc1ncccc1-n1c(/C=C/C2CS[C@H](C)N2)nc2ccccc2c1=O` (stereo not given in full) [CP-471237], the Ki is above 10000 nM. Under `CCN(CC)Cc1cccc(/C=C/c2nc3ccc(F)cc3c(=O)n2-c2ccccc2Cl)n1` [(R)-3-(2-Chloro-phenyl)-2-[(E)-2-(6-diethylaminomethyl-pyridin-2-yl)-vinyl]-6-fluoro-3H-quinazolin-4-one] stands 25 nM.
